Structures can show the parent of a compound that is named as a salt. The source made the active and inactive calls. The calls are words filed in the database; no cut-off is given here.
Legend:
[1] = system: HeLa/Fucci2; experiment: Antiproliferative activity against human HeLa/Fucci2 cells assessed as inhibition of cell viability incubated for 3 days by MTT assay; type: functional, cell-based; details: HeLa/Fucci2, 72 h
[2] = system: HeLa/Fucci2; experiment: Induction of cell cycle arrest in human HeLa/Fucci2 cells assessed as accumulation at S/G2/M phase at 56 uM measured after 68 hrs by Time-lapse imaging analysis based fluorescent microscopic method; type: functional
[3] = system: HeLa/Fucci2; experiment: Induction of cell cycle arrest in human HeLa/Fucci2 cells assessed as accumulation at G1 phase at 56 uM incubated for 3 days by flow cytometric analysis (reference value: 39.4%); type: functional
[4] = system: HeLa/Fucci2; experiment: Induction of cell cycle arrest in human HeLa/Fucci2 cells assessed as accumulation at G1/S phase at 56 uM incubated for 3 days by flow cytometric analysis (reference value: 40.2%); type: functional
[5] = system: HeLa/Fucci2; experiment: Induction of cell cycle arrest in human HeLa/Fucci2 cells assessed as accumulation at S/G2/M phase at 56 uM incubated for 3 days by flow cytometric analysis (reference value: 20.4%); type: functional

Compound | IC50 [1] | Activity [2] | Activity [3] | Activity [4] | Activity [5]
COC1=CC(=O)C2=C(C=CC(C)(CC[C@@]3(C)CCC=C(C)[C@H]3C)O2)C1=O (some centres not stated) | 73 µM | inactive | – | – | –
COC1=CC(=O)C2=C(C=CC(C)(CCC3=C(C)CCCC3(C)C)O2)C1=O (racemic) | 76 µM | inactive | 21.5% | 23.4% | 55%
COc1cc(OC)c2c(c1O)C=C[C@](C)(CC[C@@]1(C)CCC=C(C)[C@H]1C)O2 | 89 µM | inactive | – | – | –

The next compounds have a lower IC50 [1] than those just listed; values first:

IC50 [1] | Compound | Activity [2] | Activity [3] | Activity [4] | Activity [5]
64 µM | COC1=CC(=O)C(O)=C(C/C=C(\C)CCC2=C(C)CCCC2(C)C)C1=O | Active | 7.6% | 4.3% | 88%
53 µM | COC1=CC(=O)C(O)=C(C/C=C(\C)CC[C@@]2(C)CCC=C(C)[C@H]2C)C1=O [METACHROMIN C] | Active | – | – | –
2 µM | COc1cccc2c1C(=O)c1c(O)c3c(c(O)c1C2=O)C[C@@](O)(C(=O)CO)C[C@@H]3O[C@H]1C[C@H](N)[C@H](O)[C@H](C)O1 [DOXORUBICIN HYDROCHLORIDE] | – | – | – | –
